Test results as given in patent EP0603240B1, “SAFENING HERBICIDAL PYRAZOLYLSULFONYLUREAS” (priority 1991, dated 1993).

Experiments:
corn [1] = experiment: Example 15, Procedure II: Herbicide No. 1 + butylate (No. 10) with antidotes; format: in vivo; conditions: Herbicide No. 1 1.12 and 0.56 kg/ha + Herbicide No. 10 6.72 kg/ha PPI, Table 15
Procedure: (§1) Containers were filled and compacted with a fumigated silt loam top soil to a depth of about 1.3 cm from the top of the container. A first container was designated as an untreated control, a second container was designated as a herbicide control, and a third container was designated as a herbicide + antidote test container. Each of the containers was seeded with a crop species. A measured amount of herbicide dispersed or dissolved in acetone was applied to a measured quantity of soil. To this same quantity of soil treated with herbicide, there was added a measured amount of antidote dispersed or dissolved in acetone. The quantity of soil treated with the herbicide and antidote was thoroughly mixed to incorporate the herbicide and antidote in the soil uniformly. The seed bed in the third container of soil was covered with the soil treated with the herbicide and antidote and the container was leveled. For each test series, the seed beds of the first and second containers were likewise covered by soil layers. the cover layer of the first container was not treated with herbicide or antidote.
(§2) The containers were then placed on a bench in a greenhouse and sub-irrigated as required for the duration of the test. […] Plant response is measured in terms of percent injury. Antidote efficacy is indicated as the difference in plant injury by the herbicide(s) without the antidote and with the antidote.
(§3) This procedure is the same as Procedure I, but modified in the manner that after incorporation of the chemicals (herbicide and antidote) the containers with the covered seedbed were treated with an initial overhead irrigation equivalent to 0.6 cm rainfall, then subsequently sub-irrigated as required on greenhouse benches.
This example describes experiments designed to investigate the antidotal efficacy of a plurality of antidotes against the herbicidal action of a combination of Herbicide No. 1 and butylate in corn and the prevalent weeds barnyardgrass and velvetleaf. The antidotes used in these experiments were Nos. 1-10, 12, 13 and 15.
The test procedure used in these experiments was that of Procedure II described above. The antidotes were applied to a soil cover layer by pipet after spraying the herbicides onto the soil, followed by incorporation and overhead irrigation.

corn [2] = experiment: Example 5, Procedure I: Herbicide No. 1 + alachlor (No. 7) with Antidote Nos. 15 and 16; format: in vivo; conditions: Herbicide No.1 6.72 + No.7 2.24 kg/ha + antidote 2.24 kg/ha
Procedure: as §1, §2
This example describes tests with Antidote Nos. 15 and 16 to safen Herbicide No. 1 according to Procedure I using corn and the weeds barnyardgrass and velvetleaf as the test plants.
In the tests described in this example, the same procedure described in Example 4 was performed simultaneously therewith and under the same conditions, except that a co-herbicide, alachlor, was included in the same composition with Herbicide No. 1 and Antidote Nos. 15 and 16. Alachlor (Herbicide No. 7 herein) is the active ingredient in the commercial product LASSO® herbicide.

corn [3] = experiment: Example 7, Procedure II: Herbicide No. 1 + metolachlor (No. 12) with antidotes; format: in vivo; conditions: Herbicide Nos. 1 and 12, Table 7
Procedure: as §1, §2, §3
(§4) In this example, Procedure II described above was followed. The data from the tests in this example is shown in Table 6 and represents averages of duplicate replications.
The tests in this example followed the same procedure and antidotes used in Example 6. However, Herbicide No. 12 (metolachlor) was used as the co-herbicide with Herbicide No. 1.

corn [4] = experiment: Example 9, Procedure II: Herbicide No. 1 + pretilachlor (No. 13) with antidotes; format: in vivo
Procedure: as §1, §2, §3
(§5) In this example the safening effect on a composition comprising Herbicide No. 1 and another leading rice herbicide, i.e., Herbicide No. 13, was investigated using the same antidotes and test procedure described in the preceding example. Herbicide No. 13 is pretilachlor, active ingredient used in the commercial rice herbicides RIFIT®, SOFIT® and SOFIT® SUPER.

corn [5] = experiment: Example 11, Procedure II: Herbicide No. 1 + metazachlor (No. 14) with antidotes; format: in vivo; conditions: Herbicides 1 and 14, Table 11
Procedure: as §1, §2, §3
In this example, yet another α-chloroacetanilide co-herbicide, metazachlor (Herbicide No. 14) was combined with Herbicide No. 1 for investigation of the effect of various safeners on that composition. Metazachlor is the active ingredient in the commercial herbicide BUTISAN® S, used here as a 500 g/L formulation.

corn [6] = experiment: Example 19, Procedure II: Herbicide No. 1 + ERADICANE EXTRA with added antidotes; format: in vivo
Procedure: as §1, §2, §3
In the test reported in this example, the herbicidal composition was similar to that used in Example 16 in that Herbicide No. 1 was combined with EPTC (Herbicide No. 4) as a co-herbicide and the antidotes included Nos. 1, 2, 7, 13 and 15. However, in this test the EPTC was introduced as a formulation of ERADICANE (EPTC + the antidote R-25788, i.e., Antidote No. 1) at an application rate of 8.96 kg/ha. Thus, in this test two antidotes were present, viz. R-25788 and one of the auxilliary antidotes, No. 2, 13 and 15.
The test reported in this example was performed in the same manner and with the same antidotes used in Example 18, the only difference being the substitution of the commercial herbicidal product ERADICANE® EXTRA for ERADICANE®. ERADICANE EXTRA is a formulation containing both an antidote, i.e., R-29148 (Antidote No. 5 herein), and an extender, dietholate.

corn [7] = experiment: Example 25, greenhouse preemergence test: Antidote Nos. 1 and 2 against Herbicide Nos. 1-3; format: in vivo, Corn (Pioneer 3424 variety); conditions: Zea mays, pre-emergence; preemergence; Herbicide No. 3 0.25 G/ha + Antidote No. 1 7.41 G/ha; read-out: corn injury, percent inhibition of growth
Procedure: The chemicals were tested in both preemergence and post-emergence modes of application. The herbicides were prepared and applied as wettable powders; dichlormid was applied as an emulsifiable concentrate, while the naphthalic anhydride was applied as a coating on the corn seed prior to planting.
(§6) Test data from the preemergence tests are shown in Table 25A and from the post-emergence tests in Table 25B. In the tables, the concentration of chemicals is shown in terms of active ingredient in grams per hectare (G/ha); concentrations of the naphthalic anhydride were not measured per se, but were present as in conventional, normally-coated applications. Corn injury is shown in terms of percent inhibition of growth.

corn [8] = experiment: Example 25, greenhouse post-emergence test: Antidote Nos. 1 and 2 against Herbicide Nos. 1-3; format: in vivo, Corn (Pioneer 3424 variety); conditions: Herbicide Nos. 1-3
Procedure: Additional tests were conducted in the greenhouse in order to evaluate the antidotal efficacy of Antidote Nos. 1 (dichlormid) and 2 (naphthalic anhydride) in protecting corn from the herbicidal activity of Herbicide Nos. 1-3 (i.e., NC-319, NC-319 EX and NC-311, respectively). The chemicals were tested in both preemergence and post-emergence modes of application. The herbicides were prepared and applied as wettable powders; dichlormid was applied as an emulsifiable concentrate, while the naphthalic anhydride was applied as a coating on the corn seed prior to planting.
Corn seeds (Pioneer 3424 variety) were planted in alluvial soil containing compost and fertilizer in pots 12 cm. in diameter. Test chemicals were applied with a spray gun at the spray volume rate of 11.2 l/ha at the time of seeding in the preemergence tests and seven (7) days after seeding in the post-emergence tests, when the check (control) plants were at the 16-20 cm., 3.0-3.2 leaf stage, and naphthalic anhydride coated seed grown plants were at the 14-16 cm., 2.8-3.0 leaf stage.
as §6

corn [9] = experiment: Example 13, Procedure II: Herbicide No. 1 + acetochlor (No. 6) with dichloroacetamide antidotes; format: in vivo; conditions: in vivo
Procedure: as §1, §2, §3
In this example a plurality of dichloroacetamide antidotes were tested for their safening efficacy against a herbicidal composition comprising Herbicide No. 1 and a co-herbicide, acetochlor (Herbicide No. 6) in corn in the presence of velvetleaf. The procedure used in this example was Procedure II above.

corn [10] = experiment: Example 6, Procedure II: Herbicide No. 1 + alachlor (No. 7) with antidotes; format: in vivo; conditions: Herbicides 1 and 7 applied PPI, Table 6
Procedure: as §1, §2, §3
This example was designed to investigate the antidotal efficacy of a plurality of antidotal compounds against a composition comprising Herbicide No. 1 in combination with Herbicide No. 7 (alachlor). The antidotal compounds used herein were Nos. 1, 2, 7, 13 and 15.
as §4

corn [11] = experiment: Example 12, Procedure II: Herbicide No. 1 + acetochlor (No. 6) with thirteen antidotes; format: in vivo; conditions: Herbicide No. 1:Herbicide 6:Antidote 0.14:2.24:2.24 kg/ha
Procedure: as §1, §2, §3
This example was designed to investigate the efficacy of thirteen different antidotes from different classes of chemistry as safeners against compositions of Herbicide No. 1 and acetochlor (Herbicide No. 6) as co-herbicide. Acetochlor is the active ingredient in the commercial herbicides GUARDIAN® and WENNER®.
The test procedure used in this example was Procedure II described above.

[12] = tested on: barnyardgrass (Echinochloa crusgalli); experiment: Example 9, Procedure II: Herbicide No. 1 + pretilachlor (No. 13) with antidotes; format: in vivo; conditions: Herbicide No.13 2.24 kg/ha alone, no antidote
Procedure: as §1, §2, §3
(§7) In the series of greenhouse tests described below, for routine screening purposes the herbicide/antidote compositions were tested in crop/weed combinations involving corn as the crop and either or both of the weeds barnyardgrass (Echinochloa crusgalli), a monocotyledonous weed, and velvetleaf (Abutilon theophrasti), a dicotyledonous weed. In the tables below, these weeds are indicated by the symbols "BYG" and "VL", respectively.
as §5

[13] = tested on: velvetleaf (Abutilon theophrasti); experiment: as above; format: in vivo; conditions: Herbicide No.13 2.24 kg/ha alone, no antidote
Procedure: as §1, §2, §3, §7, §5

Question: `O=C(C(Cl)Cl)N1CCCCN(C(=O)C(Cl)Cl)CCC1` [Antidote No. 8, 1,5-Diazacyclononane, 1,5-bis(dichloroacetyl)-] was tested. Which “safening of corn, assessment in words” value (corn [1]) did it give?
Answer: Its value is “complete protection against corn injury”.

Question: `C=CCN(CC=C)C(=O)C(Cl)Cl` [Antidote No. 1, Acetamide, N,N-bis(2-propenyl)-α,α-dichloro] was tested. Which “% Injury Corn” value (corn [2]) did it give?
Answer: The value was 50%.

Question: What about the “safening of corn, assessment in words” value (corn [3]) of the same compound?
Answer: The value was “best safening effect across four treatments”.

Question: What about the “safening of corn, assessment in words” value (corn [4]; Herbicide Nos. 1 and 13, Table 9) of the same compound?
Answer: The value was “best safening effect across four treatments”.

Question: What about the “safening of corn, assessment in words” value (corn [5]) of the same compound?
Answer: Its value is “outperformed the antidotes (2 and 13) of other chemistries”.

Question: What about the corn injury (corn [6]; Herbicide No. 1 + ERADICANE EXTRA + added antidote, highest rates of antidotes and herbicides) of the same compound?
Answer: Its corn injury is 25%.

Question: And the inhibition at 7.41 g/ha (corn [7])?
Answer: The inhibition at 7.41 g/ha was 43%.

Question: And the “safening of corn, assessment in words” value (corn [8])?
Answer: Its value is “did not exhibit noticeable safening effect”.

Question: `CC1c2ccccc2CCN1C(=O)C(Cl)Cl` (centres unmarked) [Antidote No. 12] was tested. Which “safening of corn, assessment in words” value (corn [1]) did it give?
Answer: The value was “complete protection against corn injury”.

Question: How did the “% Injury Corn” value (corn [9]) turn out when `CC1(C)CN2C(=O)CCC2(C)N(C(=O)C(Cl)Cl)C1` (centres unmarked) [compound 14] was run?
Answer: The value was 5%.

Question: Which results are given for `CC1(C(Cl)Cl)OCCO1` [Antidote No. 13, 1,3-Dioxolane, 2-(dichloromethyl)-2-methyl-]?
Answer: safening of corn, assessment in words (corn [10]): best safening effect across four treatments; safening of corn, assessment in words (corn [11]): performed at commercial levels; safening of corn, assessment in words (corn [1]): best safening effect at the highest rate; safening of corn, assessment in words (corn [6]; Herbicide No. 1 + ERADICANE EXTRA, Table 19): most efficacious antidote across all four treatments

Question: Which “% Injury Corn” value (corn [4]; Herbicide No.13 2.24 kg/ha alone, no antidote) does the source give for `CCCOCCN(C(=O)CCl)c1c(CC)cccc1CC` [Herbicide No.13] here?
Answer: The value was 0%.

Question: What about the “% Injury BYG” value [12] of the same compound?
Answer: The value was 100%.

Question: What about the “% Injury VL” value [13] of the same compound?
Answer: The value was 5%.
